Test results: patent publication US7592366B2, “Therapeutic compounds” (Allergan, Inc., priority 2006, dated 2009)

Experiments:
Assay type in all cases: cell-based
hFP = molecular target: T1, hFP (Homo sapiens, UniProt P43088); test: FLIPR calcium signal, hFP; settings: read-out: Other Receptors (EC50 in nM) hFP
T1 construct: expressed in transfected cells; host or cells: HEK-293(EBNA)
Experimental: (§1) HEK-293(EBNA) cells, stably expressing one type or subtype of recombinant human prostaglandin receptors (prostaglandin receptors expressed: hDP/Gqs5; hEP1; hEP2/Gqs5; hEP3A/Gqi5; hEP4/Gqs5; hFP; hIP; hTP), were cultured in 100 mm culture dishes in high-glucose DMEM medium containing 10% fetal bovine serum, 2 mM l-glutamine, 250 μg/ml geneticin (G418) and 200 μg/ml hygromycin B as selection markers, and 100 units/ml penicillin G, 100 μg/ml streptomycin and 0.25 μg/ml amphotericin B.
Cells were seeded at a density of 5×10^4 cells per well in Biocoat® Poly-D-lysine-coated black-wall, clear-bottom 96-well plates (Becton-Dickinson) and allowed to attach overnight in an incubator at 37° C. Cells were then washed two times with HBSS-HEPES buffer (Hanks Balanced Salt Solution without bicarbonate and phenol red, 20 mM HEPES, pH 7.4) using a Denley Cellwash plate washer (Labsystems). […]
Cells were excited with an Argon laser at 488 nm, and emission was measured through a 510-570 nm bandwidth emission filter (FLIPR™, Molecular Devices, Sunnyvale, Calif.). […] The peak increase in fluorescence intensity was recorded for each well. […] The peak fluorescence change in each drug-containing well was then expressed relative to the controls. […]

hEP4/Gqs5 = molecular target: T2, hEP4/Gqs5 (Homo sapiens, UniProt P35408); test: FLIPR calcium signal, EP4; settings: HEK-293(EBNA) cells
T2 construct: expressed in transfected cells; host or cells: HEK-293(EBNA)
Experimental: as §1
(§2) Cells were seeded at a density of 5×10^4 cells per well in Biocoat® Poly-D-lysine-coated black-wall, clear-bottom 96-well plates (Becton-Dickinson) and allowed to attach overnight in an incubator at 37° C. Cells were then washed two times with HBSS-HEPES buffer (Hanks Balanced Salt Solution without bicarbonate and phenol red, 20 mM HEPES, pH 7.4) using a Denley Cellwash plate washer (Labsystems). After 45 minutes of dye-loading in the dark, using the calcium-sensitive dye Fluo-4 […] at a final concentration of 2 μM, plates were washed four times with HBSS-HEPES buffer to remove excess dye leaving 100 μl in each well. Plates were re-equilibrated to 37° C. for a few minutes.
(§3) Cells were excited with an Argon laser at 488 nm, and emission was measured through a 510-570 nm bandwidth emission filter (FLIPR™, Molecular Devices, Sunnyvale, Calif.). Drug solution was added in a 50 μl volume to each well to give the desired final concentration. The peak increase in fluorescence intensity was recorded for each well. On each plate, four wells each served as negative (HBSS-HEPES buffer) and positive controls (standard agonists: BW245C (hDP); PGE2 (hEP1; hEP2/Gqs5; hEP3A/Gqi5; hEP4/Gqs5); PGF2α (hFP); carbacyclin (hIP); U-46619 (hTP), depending on receptor). The peak fluorescence change in each drug-containing well was then expressed relative to the controls.
Compounds were tested in a high-throughput (HTS) or concentration-response (CoRe) format. In the HTS format, forty-four compounds per plate were examined in duplicates at a concentration of 10^−5 M. To generate concentration-response curves, four compounds per plate were tested in duplicates in a concentration range between 10^−5 and 10^−11 M. The duplicate values were averaged. In either, HTS or CoRe format each compound was tested on at least 3 separate plates using cells from different passages to give an n≧3.

hTP = molecular target: T3, hTP (Homo sapiens, UniProt P21731); test: FLIPR calcium signal, hTP; settings: read-out: Other Receptors (EC50 in nM) hTP
T3 construct: expressed in transfected cells; host or cells: HEK-293(EBNA)
T3 sequence (P21731 1-343): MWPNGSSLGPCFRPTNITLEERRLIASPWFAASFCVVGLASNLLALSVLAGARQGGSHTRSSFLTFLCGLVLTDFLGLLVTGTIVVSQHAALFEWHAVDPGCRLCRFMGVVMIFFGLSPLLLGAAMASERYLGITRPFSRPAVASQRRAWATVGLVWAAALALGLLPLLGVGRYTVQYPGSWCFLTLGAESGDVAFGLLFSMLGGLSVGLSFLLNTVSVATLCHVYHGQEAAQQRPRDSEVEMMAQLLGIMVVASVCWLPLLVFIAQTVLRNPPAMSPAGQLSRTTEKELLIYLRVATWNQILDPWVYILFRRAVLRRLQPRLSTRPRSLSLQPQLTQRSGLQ
Experimental: as §1, §2, §3
Compounds were tested in a high-throughput (HTS) or concentration-response (CoRe) format. […]

T1 sequence (P43088 whole entry): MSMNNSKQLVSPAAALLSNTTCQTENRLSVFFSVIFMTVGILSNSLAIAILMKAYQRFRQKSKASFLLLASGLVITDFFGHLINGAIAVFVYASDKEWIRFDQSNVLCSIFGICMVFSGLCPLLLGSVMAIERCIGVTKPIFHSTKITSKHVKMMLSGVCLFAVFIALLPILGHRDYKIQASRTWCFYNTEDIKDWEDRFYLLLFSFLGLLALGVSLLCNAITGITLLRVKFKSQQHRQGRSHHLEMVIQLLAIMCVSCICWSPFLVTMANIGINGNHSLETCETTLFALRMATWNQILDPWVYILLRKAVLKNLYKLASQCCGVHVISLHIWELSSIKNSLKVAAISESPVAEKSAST
T2 sequence (P35408 whole entry): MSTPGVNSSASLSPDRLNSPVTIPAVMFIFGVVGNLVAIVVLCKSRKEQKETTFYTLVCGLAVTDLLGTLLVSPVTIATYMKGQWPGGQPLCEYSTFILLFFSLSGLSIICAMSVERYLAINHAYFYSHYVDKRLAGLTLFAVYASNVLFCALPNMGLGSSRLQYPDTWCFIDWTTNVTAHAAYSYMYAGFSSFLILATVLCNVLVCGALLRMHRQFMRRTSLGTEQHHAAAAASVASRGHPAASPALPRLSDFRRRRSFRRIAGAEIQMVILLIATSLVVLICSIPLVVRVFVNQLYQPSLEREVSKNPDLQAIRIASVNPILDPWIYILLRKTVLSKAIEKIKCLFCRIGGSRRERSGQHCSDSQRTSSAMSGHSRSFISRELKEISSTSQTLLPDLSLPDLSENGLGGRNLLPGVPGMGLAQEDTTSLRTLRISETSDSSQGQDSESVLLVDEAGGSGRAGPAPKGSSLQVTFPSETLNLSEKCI

| SMILES | EC50 (hFP) | EC50 (hEP4/Gqs5) | EC50 (hTP) |
| --- | --- | --- | --- |
| O=C(O)c1ccc(CCC[C@@H]2[C@@H](CCc3cc(Cl)cc(Cl)c3)[C@@H](O)C[C@H]2Cl)s1 [compound 17, 5-(3-((1R,2R,3S,5R)-5-chloro-2-(3,5-dichlorophenethyl)-3-hydroxycyclopenty)propyl)thiophene-2-carboxylic acid] | > 10000 nM |  |  |
| O=C(O)c1ccc(CCC[C@@H]2[C@@H](CCc3cc(F)cc(F)c3)[C@H](O)C[C@H]2Cl)s1 [11d, 5-(3-((1R,2R,3R,5R)-5-chloro-2-(3,5-difluorophenethyl)-3-hydroxycyclopentyl)propyl)thiophene-2-carboxylic acid] |  | > 10 µM | 64 nM |
